Here are results for four sequences from patent US12529162B2, “Method of screening for peptides capable of binding to a ubiquitin protein ligase (E3)” (Phoremost Limited, priority 2019, dated 2026).

“Also recorded” adds a separate entry of the source. Where two headings read alike, the source gives them in different places.

Assay [1] has as its target TNKS2 (residues 20-800) (Homo sapiens, UniProt Q9H2K2). As to conditions: read-out: affinity of binding to TNKS2; fluorescence polarization; Guettler et al., 2011; cited from earlier work. A general note: Polarisation of emitted light reports the rotation of a fluorescent probe.
For assay [2], the target named is T1, TNKS2 (Homo sapiens, UniProt Q9H2K2).
T1 construct: endogenous in cells; host or cells: HEK293A
T1 sequence (Q9H2K2 1-1166): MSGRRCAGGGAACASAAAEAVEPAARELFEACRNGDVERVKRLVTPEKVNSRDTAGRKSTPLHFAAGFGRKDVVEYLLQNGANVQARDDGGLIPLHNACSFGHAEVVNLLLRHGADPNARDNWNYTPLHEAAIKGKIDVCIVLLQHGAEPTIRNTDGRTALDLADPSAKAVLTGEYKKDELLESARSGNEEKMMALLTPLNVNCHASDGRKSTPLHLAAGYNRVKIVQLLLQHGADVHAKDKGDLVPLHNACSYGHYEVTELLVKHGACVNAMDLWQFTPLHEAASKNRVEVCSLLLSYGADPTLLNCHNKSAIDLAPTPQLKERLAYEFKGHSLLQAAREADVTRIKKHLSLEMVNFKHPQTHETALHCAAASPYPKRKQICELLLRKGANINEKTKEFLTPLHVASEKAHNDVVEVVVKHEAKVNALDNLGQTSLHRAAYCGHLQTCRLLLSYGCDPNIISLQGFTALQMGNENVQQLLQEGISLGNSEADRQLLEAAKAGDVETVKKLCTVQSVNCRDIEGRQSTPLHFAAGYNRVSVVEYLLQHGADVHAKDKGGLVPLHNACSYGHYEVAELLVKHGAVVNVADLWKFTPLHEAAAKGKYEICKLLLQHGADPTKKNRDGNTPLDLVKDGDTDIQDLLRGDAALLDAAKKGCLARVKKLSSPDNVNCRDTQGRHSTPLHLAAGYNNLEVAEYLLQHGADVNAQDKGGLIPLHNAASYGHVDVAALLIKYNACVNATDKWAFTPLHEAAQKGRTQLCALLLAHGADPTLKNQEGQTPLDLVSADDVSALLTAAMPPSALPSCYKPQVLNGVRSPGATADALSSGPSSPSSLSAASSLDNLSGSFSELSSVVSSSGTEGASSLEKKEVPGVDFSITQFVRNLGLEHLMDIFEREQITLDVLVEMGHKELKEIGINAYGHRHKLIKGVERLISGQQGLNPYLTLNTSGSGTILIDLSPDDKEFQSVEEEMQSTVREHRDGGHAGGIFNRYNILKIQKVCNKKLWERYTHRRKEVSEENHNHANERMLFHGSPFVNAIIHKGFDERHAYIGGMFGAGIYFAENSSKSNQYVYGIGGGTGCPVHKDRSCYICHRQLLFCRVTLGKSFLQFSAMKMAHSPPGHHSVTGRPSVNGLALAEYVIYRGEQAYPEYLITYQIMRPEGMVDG
Briefly: Western blot of TNKS2 levels in HEK293A cells transfected with PROTAC-encoding plasmids. As to conditions: 20 hours after transfection, actin loading control. The class given is cell-based. The source says: A DNA construct encoding for the TNKS2 binding sequence (3BP2^410-425) at the N-terminus as set out in SEQ ID NO: 1, a GGGGSS linker as set out in SEQ ID NO: 3, and the E3 binding sequence (ALAPYIP) as set out in SEQ ID NO: 2, at the C-terminus was cloned into pMOST25 vector (the full PROTAC as set out in SEQ ID NO: 4). pMOST25 is a lentiviral vector based on pCDH EF1a (System Biosciences) where the promoter was swapped for CMV and the MCS replaced by a new cassette with flanking NGS primer sites. Control constructs which (i) lacked the ALAPYIP E3 binding sequence (3BP2^410-425) as set out in SEQ ID NO: 5 or (ii) contained a double mutation which is known to disrupt HIF1α-VHL interaction (3BP2^410-425-ALAAAIP) as set out in SEQ ID NO: 6 were similarly cloned (Table 1). Neither control construct can bind to the E3 ligase and therefore there should be no change in the level of TNKS2 when cells are transduced with these. HEK293A cells were collected 20 hours after transfection, and levels of TNKS2 target protein were assessed by Western Blot (FIG. 2). Membranes were probed with primary antibodies against TNKS2 (Abcam ab155545), or actin (Abcam ab179467) as a loading control. […]
20 hours after transfection, cells were harvested and analyzed by Western Blotting. […]
In general terms: In western blotting, separated proteins are transferred to a membrane and probed.

For assay [3], the system named is GFP. As to conditions: HEK293A. The procedure:
GFP was used as the target (test protein) in this study.
GFP-peptide expressing cells were either untreated (DMSO treatment only; ‘Peptide+vehicle’) or treated with the proteasome inhibitor MG132 (10 μM in DMSO, for 4 h) (‘Peptide+MG132’), and were then analyzed by FACS for GFP levels (FIG. 8).

Assay [4] deals with GFP. As to conditions: HEK293A. The procedure: Plasmids encoding for GFP alone (control), or GFP tagged with one of the validated candidate peptide hits from the screening method, Hit (#1) (see Example 5) or Hit (#2), were transduced into HEK293A cells using lentivirus. Cells expressing tagged GFP were either untreated (DMSO treatment only) or treated with the proteasome inhibitor MG132 for 4 hours, after which they were harvested and analyzed by Western Blotting. Membranes were probed with primary antibodies against GFP (CST #2555), or actin (Abcam ab179467) as a loading control. After the addition of HRP-conjugated secondary antibodies, protein signals were detected by chemiluminescence (FIG. 9).
The source holds these as a separate data set.

With LPHLQRSPPDGQSFRS, in assay [1], the Kd was 500 nM. With “MGLPHLQRSPPDGQSFRSLEGGGGSSAALAPYIP (3BP2(410-425)- ALAPYIP peptide) [3BP2^410-425-ALAPYIP]”, the “levels of TNKS2 by Western blot” value in assay [2] is “led to TNKS2 degradation; also recorded: markedly decreased levels of TNKS2”. Still for that read-out and setting: to “MGLPHLQRSPPDGQSFRSLEGGGGSSLDPETGEYL (3BP2(410-425) - LDPETGEYL peptide) [3BP2^410-425-LDPETGEYL]” belongs “unaffected”.

Regarding “MQNNPLTSGLEPSPPQCDYIRPSLTGKFAGNPWYYGKVTRHQAEMA [Hit (#1)]”, the “GFP levels by FACS compared to no peptide control” value in assay [3] (Peptide+MG132 (10 μM, 4 h)) was “restored GFP levels back to that of the ‘no peptide control’ cells”; in assay [3] (Peptide+vehicle (DMSO only)), “marked degradation of GFP”. Further, the “GFP levels by Western blot” value in assay [4] (MG132 treated 4 hours) was “GFP levels were restored”. Moreover, the “GFP levels by Western blot compared to GFP control” value in assay [4] (absence of MG132) was “almost complete depletion of GFP”.
